Drawing on publication PMC9513367 (2022), this text covers binding and Kd for 6 molecules.

The subject of assay [1] is Apt-M13 (DNA, aptamer) CGGGGGACGTTGCCAACGGTAACGTCGTTGGAT
Briefly: AuNP colorimetric (A650/A520). As to conditions: NaCl 36.7 mM added, water, room temperature.

The subject of assay [2] is Apt1 (DNA, aptamer) ACACGACGAGGGACGAGGAGTACTTGCCAACGATAACGTCGTTGGATCTGTCTGTGCCC
Briefly: AuNP colorimetric (A650/A520). As to conditions: NaCl 36.7 mM added, water, room temperature.

Assay [3] deals with Apt-T2 (DNA, aptamer) CGAGGGACGTTGCCAACGATAACGTCGTTGGAT
Briefly: AuNP colorimetric (A650/A520). As to conditions: NaCl 36.7 mM added, water, room temperature.

Assay [4] deals with Apt-T1 (DNA, aptamer) CGAGGGACGAGGAGTACTTGCCAACGATAACGTCGTTGGAT
Briefly: AuNP colorimetric (A650/A520). As to conditions: NaCl 36.7 mM added, water, room temperature.

The subject of assay [5] is Apt-M13 (DNA, aptamer) CGGGGGACGTTGCCAACGGTAACGTCGTTGGAT
Briefly: fluorescence enhancement of dye. The following applies: water, room temperature; aptamer 50 nM stock, 1X SGI.

For assay [6], the system named is Apt-T3 (DNA, aptamer) TTGCCAACGATAACGTCGTTGGAT
Briefly: AuNP colorimetric (A650/A520). The following applies: NaCl 36.7 mM added; water, room temperature; DEX titration.

Assay [7] has as its system Apt-M9 (DNA, aptamer) CGAGGGACGTTGGCAACGGTAACGTCGTTGGAT
Briefly: AuNP colorimetric (A650/A520). As to conditions: NaCl 36.7 mM added; water, room temperature; DEX titration.

Assay [8] relates to Apt-M11 (DNA, aptamer) CGAGGGACGTTGCCAACGGTAAGGTCGTTGGAT
Briefly: AuNP colorimetric (A650/A520). The following applies: NaCl 36.7 mM added; water, room temperature; DEX titration.

The subject of assay [9] is Apt-M12 (DNA, aptamer) CGAGGGACGTTGCCAACGGTAACGTGGTTGGAT
Briefly: AuNP colorimetric (A650/A520). As to conditions: NaCl 36.7 mM added; water, room temperature; DEX titration.

In assay [10] the test system is Apt-M15 (DNA, aptamer) CGAGGGACGTTGCCAACGATAAGGTGGTTGGAT
Briefly: AuNP colorimetric (A650/A520). The following applies: NaCl 36.7 mM added; water, room temperature; DEX titration.

For assay [11], the system named is FAM-Apt-M13 (DNA, aptamer) CGGGGGACGTTGCCAACGGTAACGTCGTTGGAT
Briefly: graphene oxide fluorescence, saturation fit. The following applies: water, 37 °C 2 h; aptamer 10-250 nM varied, DEX 1.5 μM fixed; GO:aptamer mass 200:1.

Assay [12] relates to FAM-Apt1 (DNA, aptamer) ACACGACGAGGGACGAGGAGTACTTGCCAACGATAACGTCGTTGGATCTGTCTGTGCCC
Briefly: graphene oxide fluorescence, saturation fit. The following applies: water, 37 °C 2 h; aptamer 10-250 nM varied, DEX 1.5 μM fixed; GO:aptamer mass 200:1.

As for `CC(=O)OCC(=O)[C@@]1(O)CC[C@H]2[C@@H]3CCC4=CC(=O)C=C[C@]4(C)[C@H]3C(=O)C[C@@]21C`, the binding result in assay [1] (50 nmol/mL analog tested), in assay [2] (100 nmol/mL analog tested) and in assay [3] (100 nmol/mL analog tested) was “no” in each case.

As to `CCCC1O[C@@H]2C[C@H]3[C@@H]4CCC5=CC(=O)C=C[C@]5(C)[C@H]4[C@@H](O)C[C@]3(C)[C@]2(C(=O)CO)O1` (stereo partly shown), the binding entry in assay [1] (50 nmol/mL analog tested) is listed as “no”; in assay [2] (100 nmol/mL analog tested), “no”; in assay [3] (100 nmol/mL analog tested) it was “no”; in [4] (100 nmol/mL) it was “yes”.

As for `CCCN(CCCN(C)C)c1cc(C=C2Sc3ccccc3N2C)c2ccccc2[n+]1-c1ccccc1`, in assay [5], the binding entry is on record as “yes”.

As for `C[C@@H]1C[C@H]2[C@@H]3CCC4=CC(=O)C=C[C@]4(C)[C@@]3(F)[C@@H](O)C[C@]2(C)[C@@]1(O)C(=O)CO`, the binding result in assay [1] (DEX titration), in assay [2] (DEX titration), in assay [3] (DEX titration), in [4] (DEX titration), in assay [6] and in assay [7] was “yes” in each case. The binding result in assay [8], in assay [9] and in [10] was “yes” throughout. Moreover, the results for the dissociation constant Kd in [11] and in assay [12] were 200 ± 93 nM and 441 ± 180 nM, respectively.

As to `C[C@]12CCC(=O)C=C1CC[C@@H]1[C@@H]2[C@@H](O)C[C@@]2(C)[C@H]1CC[C@]2(O)C(=O)CO`, the binding entry in assay [1] (50 nmol/mL analog tested), in assay [2] (100 nmol/mL analog tested) and in assay [3] (100 nmol/mL analog tested) was “no” in each case.

Consider `O=C(N[C@H](CO)[C@H](O)c1ccc([N+](=O)[O-])cc1)C(Cl)Cl`, for which the binding result in assay [1] (50 nmol/mL analog tested), in assay [2] (100 nmol/mL analog tested) and in assay [3] (100 nmol/mL analog tested) was “no” each time.

What is called Kd is the free concentration of one partner at which half of the binding sites on the other are occupied at equilibrium, for simple one-to-one binding.
